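All cell lines were grown in 96-well plates and treated with compound for 48 hours. GI50 marks 50% less growth.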 Active and inactive are the calls of the source. Cut-off read from the data, not from the text of the source: active = GI50 up to about 1.1 µM and inactive = higher.
Assays:
Experiment in all cases: growth of human tumour cells (NCI), 48 h
[1] = test system: SF-295
[2] = test system: MDA-MB-435
[3] = test system: HT-29
[4] = test system: MOLT-4
[5] = test system: LOX IMVI
[6] = test system: SN12C
[7] = test system: RPMI-8226
[8] = test system: SK-MEL-5
[9] = test system: SK-OV-3
[10] = test system: A498
[11] = test system: HCT-116
[12] = test system: IGROV-1
[13] = test system: HCT-15
[14] = test system: COLO 205
[15] = test system: SNB-75
[16] = test system: NCI-H23
[17] = test system: Hs-578T
[18] = test system: DU-145
[19] = test system: TK-10
[20] = test system: NCI-H522
[21] = test system: OVCAR-4
[22] = test system: Malme-3M
[23] = test system: PC-3
[24] = test system: OVCAR-5
[25] = test system: SF-539
[26] = test system: SR
[27] = test system: M14
[28] = test system: OVCAR-3
[29] = test system: 786-0
[30] = test system: ACHN
[31] = test system: NCI/ADR-RES
[32] = test system: UACC-62
[33] = test system: T47D
[34] = test system: SW-620
[35] = test system: HOP-62
[36] = test system: K562
[37] = test system: CAKI-1
[38] = test system: NCI-H460
[39] = test system: SNB-19
[40] = test system: NCI-H226
[41] = test system: HCC 2998
[42] = test system: MDA-MB-231
[43] = test system: CCRF-CEM
[44] = test system: SK-MEL-28
[45] = test system: SK-MEL-2
[46] = test system: U-251
[47] = test system: HOP-92
[48] = test system: KM12
[49] = test system: UACC-257
[50] = test system: OVCAR-8
[51] = test system: SF-268
[52] = test system: UO-31
[53] = test system: A549
[54] = test system: HL-60
[55] = test system: MCF7
[56] = test system: RXF 393
[57] = test system: EKVX
[58] = test system: MDA-N

With N#CC1(C#N)C2C=CC(C3CC=CC32)C1(C#N)C#N (centres undefined) the GI50 [1] was 21.5 µM (inactive), the GI50 [2] was 7.16 µM (inactive) and the GI50 [3] was 9.71 µM (inactive). For the same compound, the GI50 [4] was 1.48 µM (inactive), the GI50 [5] was 8.59 µM (inactive) and the GI50 [6] was 10.4 µM (inactive). The GI50 [7] was 2.35 µM (inactive), the GI50 [8] was 7.73 µM (inactive) and the GI50 [9] was 45 µM (inactive). The GI50 [10] was 9.84 µM (inactive), the GI50 [11] was 1.93 µM (inactive) and the GI50 [12] was 9.33 µM (inactive). For the same compound, the GI50 [13] was 1.98 µM, the GI50 [14] was 2.07 µM (inactive) and the GI50 [15] was > 10 µM (inactive). The GI50 [16] was 8.32 µM (inactive), the GI50 [17] was 17.9 µM (inactive) and the GI50 [18] was 9.55 µM (inactive). For the same compound, the GI50 [19] was 2 µM (inactive), the GI50 [20] was 1.22 µM (inactive) and the GI50 [21] was 4.01 µM (inactive). For the same compound, the GI50 [22] was 2.79 µM (inactive), the GI50 [23] was 8.59 µM (inactive) and the GI50 [24] was 8.39 µM (inactive). For the same compound, the GI50 [25] was 9.66 µM (inactive), the GI50 [26] was 2.29 µM (inactive) and the GI50 [27] was 2.01 µM (inactive). The GI50 [28] was 2.45 µM (inactive), the GI50 [29] was 1.79 µM (inactive) and the GI50 [30] was 5.12 µM (inactive). The GI50 [31] was 12.9 µM (inactive), the GI50 [32] was 8.77 µM (inactive) and the GI50 [33] was 3.38 µM (inactive). The GI50 [34] was 2.13 µM (inactive), the GI50 [35] was 12.9 µM (inactive) and the GI50 [36] was 2.4 µM (inactive). For the same compound, the GI50 [37] was 2.08 µM (inactive), the GI50 [38] was > 50 µM (inactive) and the GI50 [39] was > 50 µM (inactive). The GI50 [40] was > 50 µM (inactive), the GI50 [41] was > 50 µM (inactive) and the GI50 [42] was 9.79 µM (inactive). For the same compound, the GI50 [43] was 1.27 µM (inactive), the GI50 [44] was 10.9 µM (inactive) and the GI50 [45] was 13.1 µM (inactive). The GI50 [46] was 10.4 µM (inactive), the GI50 [47] was 4.27 µM (inactive) and the GI50 [48] was > 10 µM (inactive). The GI50 [49] was 12.7 µM (inactive), the GI50 [50] was 4.72 µM (inactive) and the GI50 [51] was 11.2 µM (inactive). The GI50 [52] was 2.17 µM (inactive), the GI50 [53] was 10.7 µM (inactive) and the GI50 [54] was 1.12 µM (inactive). The GI50 [55] was 6.52 µM (inactive), the GI50 [56] was 5.16 µM (inactive) and the GI50 [57] was 12.3 µM (inactive).
In the case of CC(C)c1cc(C(C)C)c(B(c2ccccc2)c2ccccc2)c(C(C)C)c1B(c1ccccc1)c1ccccc1, the GI50 [1] is reported as > 100 µM (inactive), the GI50 [3] is reported as > 100 µM (inactive) and the GI50 [4] is reported as > 100 µM (inactive). For the same compound, the GI50 [5] was > 100 µM (inactive), the GI50 [6] was > 100 µM (inactive) and the GI50 [8] was > 100 µM (inactive). The GI50 [9] was > 100 µM (inactive), the GI50 [11] was > 100 µM (inactive) and the GI50 [12] was > 100 µM (inactive). The GI50 [13] was > 100 µM, the GI50 [14] was > 100 µM (inactive) and the GI50 [15] was > 100 µM (inactive). For the same compound, the GI50 [17] was > 100 µM (inactive), the GI50 [18] was > 100 µM (inactive) and the GI50 [20] was > 100 µM (inactive). The GI50 [21] was > 100 µM (inactive), the GI50 [22] was > 100 µM (inactive) and the GI50 [23] was > 100 µM (inactive). For the same compound, the GI50 [58] was > 100 µM (inactive), the GI50 [26] was > 100 µM (inactive) and the GI50 [27] was > 100 µM (inactive). For the same compound, the GI50 [28] was > 100 µM (inactive), the GI50 [30] was > 100 µM (inactive) and the GI50 [31] was > 100 µM (inactive). The GI50 [32] was > 100 µM (inactive), the GI50 [33] was > 100 µM (inactive) and the GI50 [34] was > 100 µM (inactive). For the same compound, the GI50 [35] was > 100 µM (inactive), the GI50 [38] was > 100 µM (inactive) and the GI50 [42] was > 100 µM (inactive). The GI50 [45] was > 100 µM (inactive), the GI50 [47] was > 100 µM (inactive) and the GI50 [49] was > 100 µM (inactive). The GI50 [50] was > 100 µM (inactive), the GI50 [51] was > 100 µM (inactive) and the GI50 [53] was > 100 µM (inactive). For the same compound, the GI50 [57] was > 100 µM (inactive).

Source: ChEMBL document CHEMBL1201862, “PubChem BioAssay data set” (2004)
